Calls of active or inactive are those of the source. The calls are words filed in the database; no cut-off is given here. Bounds are passed on as bounds.

This note sets out measurements from ChEMBL document CHEMBL4699592, “Nature-Inspired (di)Azine-Bridged Bisindole Alkaloids with Potent Antibacterial In Vitro and In Vivo Efficacy against Methicillin-Resistant Staphylococcus aureus” (J Med Chem, 2020).

A short description of data set [1]: Selectivity index, ratio of IC50 for cytotoxicity against human MRC5 cells to MIC90 for antibacterial activity against […] Staphylococcus aureus ATCC 700699. As to conditions: read-out: Selectivity Index. It is filed as toxicity, cell-based.
The test system of data set [2] is Pseudomonas aeruginosa. Description: Synergistic antibacterial activity against Pseudomonas aeruginosa ATCC 27853 assessed as FIC after 24 hrs in presence of colistin by checkerboard assay relative to test compound MIC. It is filed as functional.
In data set [3] the test system is Klebsiella pneumoniae. The data set is described as follows: Synergistic antibacterial activity against Klebsiella pneumoniae ATCC 700603 assessed as FICI after 24 hrs in presence of colistin by checkerboard assay. It is filed as functional.
Data set [4] can be described thus: Solubility of compound in pH 7.7 DMSO:PBS solution. In kind it is physicochemical. The conditions noted are these: buffer.
Data set [5] deals with Escherichia coli. Description: Synergistic antimicrobial activity against Escherichia coli ATCC BAA 2469 assessed as FIC after 24 hrs in presence of colistin by checkerboard assay relative to colistin. In kind it is functional.
Data set [6] concerns Enterococcus faecalis. The data set is described as follows: Antibacterial activity against Enterococcus faecalis ATCC 51299 at 0.78 to 100 uM after 24 hrs by broth microdilution method. In kind it is functional, organism-based. As to conditions: dose microM 0.78-100, time 24.0 hrs.
For data set [7], the system named is MRC5. Description: Cytotoxicity against human MRC5 cells assessed as reduction in cell viability at >=12.5 uM measured after 48 hrs by resazurin dye based fluorescence assay. As to conditions: mrc5, 48 h. (Resazurin is reduced to fluorescent resorufin, in cell work by metabolically active cells.)
Data set [8] deals with Escherichia coli. The data set is described as follows: Synergistic antimicrobial activity against Escherichia coli ATCC BAA 2469 assessed as FIC after 24 hrs in presence of colistin by checkerboard assay relative to test compound MIC. In kind it is functional.
Data set [9] deals with Staphylococcus aureus. The data set is described as follows: Antibacterial activity against methicillin susceptible Staphylococcus aureus ATCC 25923 at 0.78 to 100 uM after 24 hrs by broth microdilution method. It is filed as functional, organism-based. The conditions noted are these: dose microM 0.78-100, time 24.0 hrs. (In broth dilution the organism is exposed to a series of concentrations in liquid medium.)

The subject of data set [10] is Cell membrane. The data set is described as follows: Induction of cell membrane permeabilization in methicillin resistant Staphylococcus aureus ATCC 700699 at 5 fold MIC measured at 5 mins interval for 2 hrs by propidium iodide staining based fluorescence assay.
Data set [11] deals with Pseudomonas aeruginosa. The data set is described as follows: Synergistic antibacterial activity against Pseudomonas aeruginosa ATCC 27853 assessed as FICI after 24 hrs in presence of colistin by checkerboard assay. In kind it is functional.

As for `Clc1ccc2[nH]cc(-c3cccc(-c4c[nH]c5ccc(Cl)cc45)n3)c2c1`, the selectivity ratio in [1] is 32. Also, the FIC result in data set [2] was “<=0.0625”; in data set [5] it was 0.064; in data set [8] it was “<=0.0313”. Also, the “fractional inhibitory concentration index (FICI)” value in data set [3] was “<=0.25”; in data set [11], “<=0.5625”. Besides, the solubility entry in [4] is reported as “Insoluble”. Moreover, the result in data set [6], in [9] and in data set [10] was Active. Also, the Activity result in data set [7] was “Toxic”.
